Measured values as given in article PMC10924921, “Mi-2β promotes immune evasion in melanoma by activating EZH2 methylation” (Nature Communications, 2024).

What was measured:
Assay in all cases: biochemical
Set-up in all cases: KINOMEscan active-site competition binding panel (468 kinase assays), per cent of control at 1000 nM
Conditions in all cases: KINOMEscan per cent of control (binding competition); read-out: Percent Control
PFTK1 = target: T1, PFTK1 (Homo sapiens, UniProt O94921)
T1 construct: gene CDK14
Description: (§1) Figure S7 / Percent Control

GRK3 = GRK3 (Homo sapiens, UniProt P35626)
Description: as §1

MARK2 = MARK2 (Homo sapiens, UniProt Q7KZI7)
Description: as §1

PKN1 = PKN1 (Homo sapiens, UniProt Q16512)
Description: as §1

PHKG1 = PHKG1 (Homo sapiens, UniProt Q16816)
Description: as §1

p38-gamma = target: T2, p38-gamma (Homo sapiens, UniProt P53778)
T2 construct: gene MAPK12
Description: as §1

CLK2 = CLK2 (Homo sapiens, UniProt P49760)
Description: as §1

CSNK1G2 = CSNK1G2 (Homo sapiens, UniProt P78368)
Description: as §1

ROCK2 = ROCK2 (Homo sapiens, UniProt O75116)
Description: as §1

TTK = TTK (Homo sapiens, UniProt P33981)
Description: as §1

MLK2 = target: T3, MLK2 (Homo sapiens, UniProt Q02779)
T3 construct: gene MAP3K10
Description: as §1

CASK = CASK (Homo sapiens, UniProt O14936)
Description: as §1

FLT3(D835H) = FLT3(D835H) (Homo sapiens, UniProt P36888, D835H)
Description: as §1

PFTAIRE2 = target: T4, PFTAIRE2 (Homo sapiens, UniProt Q96Q40)
T4 construct: gene CDK15
Description: as §1

ACVRL1 = ACVRL1 (Homo sapiens, UniProt P37023)
Description: as §1

MAP3K15 = MAP3K15 (Homo sapiens, UniProt Q6ZN16)
Description: as §1

CSF1R = CSF1R (Homo sapiens, UniProt P07333)
Description: as §1

ERK5 = target: T5, ERK5 (Homo sapiens, UniProt Q13164)
T5 construct: gene MAPK7
Description: as §1

BMX = BMX (Homo sapiens, UniProt P51813)
Description: as §1

DAPK1 = DAPK1 (Homo sapiens, UniProt P53355)
Description: as §1

NEK9 = NEK9 (Homo sapiens, UniProt Q8TD19)
Description: as §1

MELK = MELK (Homo sapiens, UniProt Q14680)
Description: as §1

SGK = target: T6, SGK (Homo sapiens, UniProt O00141)
T6 construct: gene SGK1
Description: as §1

ABL1-nonphosphorylated = target: T7, ABL1-nonphosphorylated (Homo sapiens, UniProt P00519)
T7 construct: nonphosphorylated
Description: as §1

KIT-autoinhibited = KIT-autoinhibited (Homo sapiens, UniProt P10721)
Description: as §1

Sequence of CASK (O14936 whole entry): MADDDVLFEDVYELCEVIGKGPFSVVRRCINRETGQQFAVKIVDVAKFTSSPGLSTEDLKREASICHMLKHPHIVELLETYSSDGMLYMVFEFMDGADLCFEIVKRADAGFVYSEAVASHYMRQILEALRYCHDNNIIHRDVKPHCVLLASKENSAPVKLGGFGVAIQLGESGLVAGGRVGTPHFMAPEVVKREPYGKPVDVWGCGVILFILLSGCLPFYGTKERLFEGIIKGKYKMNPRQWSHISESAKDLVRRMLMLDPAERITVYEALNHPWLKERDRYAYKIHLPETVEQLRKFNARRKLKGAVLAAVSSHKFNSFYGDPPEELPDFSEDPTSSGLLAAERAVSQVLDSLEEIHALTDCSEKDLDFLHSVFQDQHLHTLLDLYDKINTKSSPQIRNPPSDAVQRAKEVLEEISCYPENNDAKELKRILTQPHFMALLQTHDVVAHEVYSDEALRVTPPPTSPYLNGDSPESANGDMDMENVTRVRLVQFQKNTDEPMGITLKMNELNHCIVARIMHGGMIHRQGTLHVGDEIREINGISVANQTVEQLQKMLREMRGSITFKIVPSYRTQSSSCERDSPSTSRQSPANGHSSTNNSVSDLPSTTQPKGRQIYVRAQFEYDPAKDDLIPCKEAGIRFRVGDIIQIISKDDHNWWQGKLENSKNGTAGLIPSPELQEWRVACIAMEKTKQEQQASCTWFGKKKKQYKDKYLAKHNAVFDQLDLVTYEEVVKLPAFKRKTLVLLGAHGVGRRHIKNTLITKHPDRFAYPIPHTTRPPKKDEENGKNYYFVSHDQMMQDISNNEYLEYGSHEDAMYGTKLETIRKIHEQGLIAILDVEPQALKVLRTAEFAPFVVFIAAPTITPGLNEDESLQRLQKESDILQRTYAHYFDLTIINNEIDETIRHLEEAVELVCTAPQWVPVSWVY
Sequence of NEK9 (Q8TD19 whole entry): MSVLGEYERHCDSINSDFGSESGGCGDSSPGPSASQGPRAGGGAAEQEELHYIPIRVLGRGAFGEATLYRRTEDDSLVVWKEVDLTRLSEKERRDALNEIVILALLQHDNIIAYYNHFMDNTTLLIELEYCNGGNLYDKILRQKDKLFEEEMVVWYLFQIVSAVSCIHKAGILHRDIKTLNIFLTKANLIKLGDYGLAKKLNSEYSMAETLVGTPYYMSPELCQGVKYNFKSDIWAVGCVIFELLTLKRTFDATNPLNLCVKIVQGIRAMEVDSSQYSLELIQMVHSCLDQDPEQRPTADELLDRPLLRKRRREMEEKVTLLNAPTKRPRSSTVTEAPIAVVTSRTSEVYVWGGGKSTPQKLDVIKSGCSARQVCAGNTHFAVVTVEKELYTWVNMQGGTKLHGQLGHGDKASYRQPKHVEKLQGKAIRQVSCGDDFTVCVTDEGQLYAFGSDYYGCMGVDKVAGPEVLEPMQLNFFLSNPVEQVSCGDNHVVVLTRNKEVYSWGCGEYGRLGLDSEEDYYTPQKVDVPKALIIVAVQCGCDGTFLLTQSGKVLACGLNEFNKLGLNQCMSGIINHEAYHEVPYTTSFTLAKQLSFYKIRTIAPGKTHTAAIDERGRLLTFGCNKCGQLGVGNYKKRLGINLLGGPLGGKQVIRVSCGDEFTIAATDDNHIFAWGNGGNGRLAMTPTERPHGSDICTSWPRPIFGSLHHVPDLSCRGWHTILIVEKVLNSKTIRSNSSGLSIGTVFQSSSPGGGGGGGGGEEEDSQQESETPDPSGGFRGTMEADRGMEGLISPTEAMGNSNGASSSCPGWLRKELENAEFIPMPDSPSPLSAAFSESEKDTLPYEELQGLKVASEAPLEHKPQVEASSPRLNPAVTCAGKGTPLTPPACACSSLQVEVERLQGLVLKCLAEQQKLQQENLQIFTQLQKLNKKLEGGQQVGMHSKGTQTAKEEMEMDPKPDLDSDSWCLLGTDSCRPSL
Sequence of MELK (Q14680 whole entry): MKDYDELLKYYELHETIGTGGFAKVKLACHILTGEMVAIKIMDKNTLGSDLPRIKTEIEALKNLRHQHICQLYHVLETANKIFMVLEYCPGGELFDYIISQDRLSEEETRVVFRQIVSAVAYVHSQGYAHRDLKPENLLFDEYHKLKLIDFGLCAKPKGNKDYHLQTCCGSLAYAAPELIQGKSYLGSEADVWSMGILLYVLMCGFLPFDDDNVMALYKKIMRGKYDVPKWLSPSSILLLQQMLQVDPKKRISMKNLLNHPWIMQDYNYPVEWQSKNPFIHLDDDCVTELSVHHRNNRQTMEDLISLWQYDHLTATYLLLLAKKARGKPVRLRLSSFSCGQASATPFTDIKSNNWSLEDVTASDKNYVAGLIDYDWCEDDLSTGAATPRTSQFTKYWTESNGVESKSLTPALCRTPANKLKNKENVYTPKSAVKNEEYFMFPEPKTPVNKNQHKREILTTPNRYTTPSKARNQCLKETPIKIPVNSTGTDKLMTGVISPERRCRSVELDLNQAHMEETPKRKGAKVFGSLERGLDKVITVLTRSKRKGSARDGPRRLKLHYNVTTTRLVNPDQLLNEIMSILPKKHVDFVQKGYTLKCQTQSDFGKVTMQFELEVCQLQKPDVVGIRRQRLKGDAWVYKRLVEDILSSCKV
Sequence of MARK2 (Q7KZI7 whole entry): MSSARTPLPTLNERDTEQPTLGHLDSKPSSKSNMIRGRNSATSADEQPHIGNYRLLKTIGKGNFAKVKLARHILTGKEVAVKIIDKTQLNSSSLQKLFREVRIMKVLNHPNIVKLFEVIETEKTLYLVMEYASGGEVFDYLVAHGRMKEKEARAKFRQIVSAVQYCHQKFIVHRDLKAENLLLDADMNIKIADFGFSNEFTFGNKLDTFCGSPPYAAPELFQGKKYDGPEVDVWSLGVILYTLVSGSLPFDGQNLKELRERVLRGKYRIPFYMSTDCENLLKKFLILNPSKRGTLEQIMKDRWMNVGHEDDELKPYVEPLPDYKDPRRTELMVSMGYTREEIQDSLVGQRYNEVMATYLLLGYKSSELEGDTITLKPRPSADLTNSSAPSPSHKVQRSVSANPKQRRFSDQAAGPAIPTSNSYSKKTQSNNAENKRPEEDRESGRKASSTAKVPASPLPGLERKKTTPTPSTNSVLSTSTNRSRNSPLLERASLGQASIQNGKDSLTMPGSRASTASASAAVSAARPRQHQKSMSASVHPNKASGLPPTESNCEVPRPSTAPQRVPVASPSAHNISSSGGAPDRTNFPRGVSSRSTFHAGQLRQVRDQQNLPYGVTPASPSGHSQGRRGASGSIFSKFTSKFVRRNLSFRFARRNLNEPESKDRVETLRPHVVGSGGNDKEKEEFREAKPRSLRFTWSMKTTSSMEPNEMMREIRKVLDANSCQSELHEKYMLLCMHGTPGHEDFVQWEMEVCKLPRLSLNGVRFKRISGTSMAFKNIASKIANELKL
Sequence of DAPK1 (P53355 whole entry): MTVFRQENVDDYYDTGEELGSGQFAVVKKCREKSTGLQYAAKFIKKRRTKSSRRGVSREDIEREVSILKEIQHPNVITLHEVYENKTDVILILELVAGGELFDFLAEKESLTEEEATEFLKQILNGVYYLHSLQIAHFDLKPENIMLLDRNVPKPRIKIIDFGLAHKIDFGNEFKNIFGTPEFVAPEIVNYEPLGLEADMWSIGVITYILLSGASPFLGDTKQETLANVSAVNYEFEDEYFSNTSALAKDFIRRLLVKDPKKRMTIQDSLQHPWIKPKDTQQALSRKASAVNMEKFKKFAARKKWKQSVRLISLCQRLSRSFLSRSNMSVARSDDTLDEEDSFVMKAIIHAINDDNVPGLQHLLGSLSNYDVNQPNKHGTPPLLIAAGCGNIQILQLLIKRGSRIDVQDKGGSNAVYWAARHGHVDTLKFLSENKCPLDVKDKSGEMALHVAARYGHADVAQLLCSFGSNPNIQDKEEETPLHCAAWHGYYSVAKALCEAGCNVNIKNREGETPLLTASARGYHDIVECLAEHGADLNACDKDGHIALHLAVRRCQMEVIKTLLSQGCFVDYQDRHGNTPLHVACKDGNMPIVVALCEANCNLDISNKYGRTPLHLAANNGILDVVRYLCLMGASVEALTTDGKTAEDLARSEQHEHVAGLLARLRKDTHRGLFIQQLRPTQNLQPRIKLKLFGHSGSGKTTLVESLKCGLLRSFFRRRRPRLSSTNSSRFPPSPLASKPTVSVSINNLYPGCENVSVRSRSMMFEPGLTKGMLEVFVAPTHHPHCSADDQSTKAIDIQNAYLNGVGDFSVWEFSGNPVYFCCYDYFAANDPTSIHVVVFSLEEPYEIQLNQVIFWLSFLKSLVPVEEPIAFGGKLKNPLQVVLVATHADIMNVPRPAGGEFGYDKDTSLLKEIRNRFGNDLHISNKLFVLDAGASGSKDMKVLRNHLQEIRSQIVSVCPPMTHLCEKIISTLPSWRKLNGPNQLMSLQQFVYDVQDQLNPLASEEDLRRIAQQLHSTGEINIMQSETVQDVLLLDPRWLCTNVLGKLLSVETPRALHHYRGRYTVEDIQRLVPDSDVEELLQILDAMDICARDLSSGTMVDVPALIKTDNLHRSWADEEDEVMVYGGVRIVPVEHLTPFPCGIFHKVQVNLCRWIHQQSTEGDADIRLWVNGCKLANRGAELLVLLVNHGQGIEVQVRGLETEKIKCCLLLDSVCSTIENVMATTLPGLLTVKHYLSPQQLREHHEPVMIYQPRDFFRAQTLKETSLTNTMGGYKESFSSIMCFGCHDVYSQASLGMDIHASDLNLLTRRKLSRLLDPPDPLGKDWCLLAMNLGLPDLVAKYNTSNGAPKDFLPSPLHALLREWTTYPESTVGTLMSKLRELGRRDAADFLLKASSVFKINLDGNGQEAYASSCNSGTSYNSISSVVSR

## Cn1c(=O)[nH]c2ccc(-c3cccc(C(=O)NC4CCn5ccnc5C4)c3)cc21 (stereo not shown) [Z36-MP5]
PFTK1
  remaining binding at 1 µM: 98%
GRK3
  remaining binding at 1 µM: 53%
MARK2
  remaining binding at 1 µM: 100%
PKN1
  remaining binding at 1 µM: 99%
PHKG1
  remaining binding at 1 µM: 90%
p38-gamma
  remaining binding at 1 µM: 78%
CLK2
  remaining binding at 1 µM: 90%
CSNK1G2
  remaining binding at 1 µM: 86%
ROCK2
  remaining binding at 1 µM: 61%
TTK
  remaining binding at 1 µM: 91%
MLK2
  remaining binding at 1 µM: 95%
CASK
  remaining binding at 1 µM: 60%
FLT3(D835H)
  remaining binding at 1 µM: 81%
PFTAIRE2
  remaining binding at 1 µM: 90%
ACVRL1
  remaining binding at 1 µM: 92%
MAP3K15
  remaining binding at 1 µM: 52%
CSF1R
  remaining binding at 1 µM: 91%
ERK5
  remaining binding at 1 µM: 86%
BMX
  remaining binding at 1 µM: 100%
DAPK1
  remaining binding at 1 µM: 99%
NEK9
  remaining binding at 1 µM: 83%
MELK
  remaining binding at 1 µM: 85%
SGK
  remaining binding at 1 µM: 68%
ABL1-nonphosphorylated
  remaining binding at 1 µM: 91%
KIT-autoinhibited
  remaining binding at 1 µM: 57%
